Drawing on patent publication US8501786B2, “Hydroxymethyl pyrrolidines as beta 3 adrenergic receptor agonists” (Merck Sharp & Dohme Corp., priority 2009, dated 2013), this text covers EC50 for 42 molecules.

SMILES strings stand for the structures. Where a name gives a salt, the structure may show the parent alone. Some results are limits rather than exact numbers.

One experiment deals with T1, human β3 adrenergic receptor (Homo sapiens, UniProt P13945).
T1 construct: stably transfected with the cloned β-adrenergic receptor (β1, β2 or β3); expressed in transfected cells; host or cells: Chinese hamster ovary (CHO) cells, stably transfected
T1 sequence (P13945 whole entry): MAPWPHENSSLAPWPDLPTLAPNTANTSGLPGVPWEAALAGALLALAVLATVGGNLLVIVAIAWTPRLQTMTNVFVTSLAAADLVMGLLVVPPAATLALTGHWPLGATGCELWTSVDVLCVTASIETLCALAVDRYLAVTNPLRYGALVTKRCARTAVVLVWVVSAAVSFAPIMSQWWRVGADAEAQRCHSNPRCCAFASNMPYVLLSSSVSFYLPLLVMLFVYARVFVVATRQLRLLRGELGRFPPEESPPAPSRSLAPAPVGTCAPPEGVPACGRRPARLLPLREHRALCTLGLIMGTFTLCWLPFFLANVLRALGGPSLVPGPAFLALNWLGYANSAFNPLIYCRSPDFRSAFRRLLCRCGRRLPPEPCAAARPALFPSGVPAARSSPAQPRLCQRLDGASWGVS
Kind of experiment: Functional assay: cAMP production (LANCE TR-FRET) in CHO cells stably transfected with cloned β3 adrenergic receptor. It is filed as cell-based. The note with it: Table 2; cAMP production, CHO cells expressing human β3 AR; read-out: Human β3 functional. As to the method:
Functional Assay: cAMP production in response to ligand is measured according to Barton, et al. (1991, Agonist-induced desensitization of D2 dopamine receptors in human Y-79 retinoblastoma cells. Mol. Pharmacal. v3229:650-658) modified as follows, cAMP production is measured using a homogenous time-resolved fluorescence resonance energy transfer immunoassay (LANCE™, Perkin Elmer) according to the manufacture's instructions. Chinese hamster ovary (CHO) cells, stably transfected with the cloned β-adrenergic receptor (β1, β2 or β3) are harvested after 3 days of subculturing. Harvesting of cells is done with Enzyme-free Dissociation Media (Specialty Media). Cells are then counted and resuspended in assay buffer (Hank's Balanced salt solution supplemented with 5 mM HEPES, […]) containing a phosphodiesterase inhibitor (IBMX, 0.6 mM). The reaction is initiated by mixing 6,000 cells in 6 μL with 6 μL Alexa Fluor labeled cAMP antibody (LANCE™ kit) which is then added to an assay well containing 12 μL of compound (diluted in assay buffer to 2× final concentration). The reaction proceeds for 30 min at room temperature and is terminated by the addition of 24 ul detection buffer (LANCE™ kit). The assay plate is then incubated for 1 h at room temperature and time-resolved fluorescence measured on a Perkin Elmer Envision reader or equivalent. The unknown cAMP level is determined by comparing fluorescence levels to a cAMP standard curve.
The non-selective, full agonist β-adrenergic ligand isoproterenol is used at all three receptors to determine maximal stimulation. The human β3 adrenergic receptor (AR) selective ligand (S)-N-[4-[2-[[2-hydroxy-3-(4-hydroxyphenoxy)propyl]amino]ethyl]-phenyl]-4-iodobenzenesulfonamide is used as a control in all assays. Isoproterenol is titrated at a final concentration in the assay of 10^-10 M to 10-5 and the selective ligand (S)-N-[4-[2-[[2-hydroxy-3-(4-hydroxyphenoxy)propyl]amino]ethyl]phenyl]-4-iodobenzenesulfonamide is titrated at the β3 receptor at concentration of 10^-10 M to 10^-5 M. Unknown ligands are titrated at all 3 β-adrenergic receptor subtypes at a final concentration in the assay of 10^-10 M to 10^-5 M to determine the EC50. The EC50 is defined as the concentration of compound that gives 50% activation of its own maximum. Data are analyzed using Microsoft Excel and Graphpad Prism or an internally developed data analysis software package.
On the technique in general: cAMP levels reflect the balance of adenylyl cyclase and phosphodiesterase activity.
For `O=C(Cn1cnc2ccccc2c1=O)Nc1ccc(CC2CC[C@H]([C@H](O)c3cccnc3)N2)cc1` (single isomer, unassigned) [Example 12], the EC50 was 1 to 10 nM.
Consider `O=C(Cn1cnc2ccccc2c1=O)Nc1ccc(CC2CC[C@H]([C@H](O)c3cccnc3)N2)cc1` (single isomer, unassigned) [Example 64], for which the EC50 was in the range of 1 to 10 nM.

Still in this experiment, the particulars now being: Table 3; cAMP production, CHO cells expressing human β3 AR; read-out: Human β3 functional.
With `CC(C(=O)Nc1ccc(CC2CC[C@H]([C@H](O)c3cccnc3)N2)cc1)n1cccn1` (single isomer, unassigned) [Example 97], the EC50 lay in the range of 11 to 100 nM.
Still for that read-out and setting: the result for `CC(C(=O)Nc1ccc(CC2CC[C@H]([C@H](O)c3cccnc3)N2)cc1)n1cccn1` (single isomer, unassigned) [Example 98] reads 11 to 100 nM; that for `Cc1ccn(C(C)C(=O)Nc2ccc(CC3CC[C@H]([C@H](O)c4cccnc4)N3)cc2)n1` (single isomer, unassigned) [Example 99], 11 to 100 nM; that for `Cc1ccn(C(C)C(=O)Nc2ccc(CC3CC[C@H]([C@H](O)c4cccnc4)N3)cc2)n1` (single isomer, unassigned) [Example 100], 1000 to 3000 nM.
Turning to `Cc1nc(C(C)C(=O)Nc2ccc(CC3CC[C@H]([C@H](O)c4cccnc4)N3)cc2)cs1` (single isomer, unassigned) [Example 101], the EC50 fell in the range of 1 to 10 nM.
For `Cc1nc(C(C)C(=O)Nc2ccc(CC3CC[C@H]([C@H](O)c4cccnc4)N3)cc2)cs1` (single isomer, unassigned) [Example 102], the EC50 fell in the range of 101 to 1000 nM.
In the case of `Cc1nc(C(C)C(=O)Nc2ccc(CC3CC[C@H]([C@H](O)c4cccnc4)N3)cc2)c(C)s1` (single isomer, unassigned) [Example 103], the EC50 lay in the range of 101 to 1000 nM.
The same measure, in the same setting: to `Cc1nc(C(C)C(=O)Nc2ccc(CC3CC[C@H]([C@H](O)c4cccnc4)N3)cc2)c(C)s1` (single isomer, unassigned) [Example 104] belongs 1000 to 3000 nM.
Same read-out and setting: the result for `CC(C(=O)Nc1ccc(CC2CC[C@H]([C@H](O)c3cccnc3)N2)cc1)c1csc(N)n1` (single isomer, unassigned) [Example 105] reads 1 to 10 nM.
For the molecule `CC(C(=O)Nc1ccc(CC2CC[C@H]([C@H](O)c3cccnc3)N2)cc1)c1csc(N)n1` (single isomer, unassigned) [Example 106], the EC50 was in the range of 1 to 10 nM.
For the molecule `CCCC(C(=O)Nc1ccc(CC2CC[C@H]([C@H](O)c3cccnc3)N2)cc1)c1csc(N)n1` (single isomer, unassigned) [Example 107], the EC50 was in the range of 11 to 100 nM.
The same measure, in the same setting: to `CCCC(C(=O)Nc1ccc(CC2CC[C@H]([C@H](O)c3cccnc3)N2)cc1)c1csc(N)n1` (single isomer, unassigned) [Example 108] belongs 1 to 10 nM; to `CCCC(C(=O)Nc1ccc(CC2CC[C@H]([C@H](O)c3cccnc3)N2)cc1)c1cnc(N)s1` (single isomer, unassigned) [Example 109], 1 to 10 nM.
Consider `C#CCC(C(=O)Nc1ccc(CC2CC[C@H]([C@H](O)c3cccnc3)N2)cc1)c1cnc(N)s1` (single isomer, unassigned) [Example 110], for which the EC50 is 1 to 10 nM.
On the same count and under the same terms, the result for `CC(C(=O)Nc1ccc(CC2CC[C@H]([C@H](O)c3cccnc3)N2)cc1)c1csc(C(F)(F)F)n1` (single isomer, unassigned) [Example 111] reads 11 to 100 nM.
With `CC(C(=O)Nc1ccc(CC2CC[C@H]([C@H](O)c3cccnc3)N2)cc1)c1csc(C(F)(F)F)n1` (single isomer, unassigned) [Example 112], the EC50 fell in the range of 101 to 1000 nM.
For the molecule `Nc1nc2c(s1)CCC2C(=O)Nc1ccc(CC2CC[C@H]([C@H](O)c3cccnc3)N2)cc1` (single isomer, unassigned) [Example 113], the EC50 was less than 1 nM.
The same measure, in the same setting: to `Nc1nc2c(s1)CCC2C(=O)Nc1ccc(CC2CC[C@H]([C@H](O)c3cccnc3)N2)cc1` (single isomer, unassigned) [Example 114] belongs 11 to 100 nM.
As to `Cc1nc2c(s1)CCC2C(=O)Nc1ccc(CC2CC[C@H]([C@H](O)c3cccnc3)N2)cc1` (single isomer, unassigned) [Example 115], the EC50 fell in the range of 1 to 10 nM.
On the same count and under the same terms, the result for `Cc1nc2c(s1)CCC2C(=O)Nc1ccc(CC2CC[C@H]([C@H](O)c3cccnc3)N2)cc1` (single isomer, unassigned) [Example 116] reads 101 to 1000 nM.
Regarding `Cc1nc2c(s1)CCC2C(=O)Nc1ccc(CC2CC[C@H]([C@H](O)c3cccnc3)N2)cc1` (single isomer, unassigned) [Example 117], the EC50 was in the range of 11 to 100 nM.
In the case of `Cc1nc2c(s1)CCC2C(=O)Nc1ccc(CC2CC[C@H]([C@H](O)c3cccnc3)N2)cc1` (single isomer, unassigned) [Example 118], the EC50 lay in the range of 101 to 1000 nM.
With `CCc1nc2c(s1)CCC2C(=O)Nc1ccc(CC2CC[C@H]([C@H](O)c3cccnc3)N2)cc1` (single isomer, unassigned) [Example 119], the EC50 lay within 101 to 1000 nM.
The same measure, in the same setting: the result for `CCc1nc2c(s1)CCC2C(=O)Nc1ccc(CC2CC[C@H]([C@H](O)c3cccnc3)N2)cc1` (single isomer, unassigned) [Example 120] reads 11 to 100 nM; that for `O=C(Nc1ccc(CC2CC[C@H]([C@H](O)c3cccnc3)N2)cc1)C1CCc2sc(C3CC3)nc21` (single isomer, unassigned) [Example 121], 11 to 100 nM; that for `O=C(Nc1ccc(CC2CC[C@H]([C@H](O)c3cccnc3)N2)cc1)C1CCc2sc(C3CC3)nc21` (single isomer, unassigned) [Example 122], 101 to 1000 nM.
As to `CC(C)c1nc2c(s1)CCC2C(=O)Nc1ccc(CC2CC[C@H]([C@H](O)c3cccnc3)N2)cc1` (single isomer, unassigned) [Example 123], the EC50 is 101 to 1000 nM.
In the case of `CC(C)c1nc2c(s1)CCC2C(=O)Nc1ccc(CC2CC[C@H]([C@H](O)c3cccnc3)N2)cc1` (single isomer, unassigned) [Example 124], the EC50 is 11 to 100 nM.
With `COCc1nc2c(s1)CCC2C(=O)Nc1ccc(CC2CC[C@H]([C@H](O)c3cccnc3)N2)cc1` (single isomer, unassigned) [Example 125], the EC50 was in the range of 11 to 100 nM.
As to `COCc1nc2c(s1)CCC2C(=O)Nc1ccc(CC2CC[C@H]([C@H](O)c3cccnc3)N2)cc1` (single isomer, unassigned) [Example 126], the EC50 is 101 to 1000 nM.
Still for that read-out and setting: the result for `O=C(Nc1ccc(CC2CC[C@H]([C@H](O)c3cccnc3)N2)cc1)C1CCc2cccnc21` (single isomer, unassigned) [Example 127] reads 1 to 10 nM.
Consider `O=C(Nc1ccc(CC2CC[C@H]([C@H](O)c3cccnc3)N2)cc1)C1CCc2cccnc21` (single isomer, unassigned) [Example 128], for which the EC50 lay in the range of 1 to 10 nM.
For `Cc1nc2c(s1)CCC2(C)C(=O)Nc1ccc(CC2CC[C@H]([C@H](O)c3cccnc3)N2)cc1` (single isomer, unassigned) [Example 129], the EC50 is 1000 to 3000 nM.
Same read-out and setting: the result for `Cc1nc2c(s1)CCC2(C)C(=O)Nc1ccc(CC2CC[C@H]([C@H](O)c3cccnc3)N2)cc1` (single isomer, unassigned) [Example 130] reads 101 to 1000 nM; that for `Cc1nc2c(s1)CCCC2C(=O)Nc1ccc(CC2CC[C@H]([C@H](O)c3cccnc3)N2)cc1` (single isomer, unassigned) [Example 131], 1 to 10 nM.
Take `Cc1nc2c(s1)CCCC2C(=O)Nc1ccc(CC2CC[C@H]([C@H](O)c3cccnc3)N2)cc1` (single isomer, unassigned) [Example 132]: the EC50 lay within 101 to 1000 nM.

The same experiment, now with this note: cAMP production, CHO cells expressing human β3 AR; read-out: human Beta-3 agonist functional activity.
For `C[C@H](C(=O)Nc1ccc(C[C@@H]2CC[C@H]([C@H](O)c3cccnc3)N2)cc1)c1ccccn1` (single isomer, unassigned) [Example 93, trifluoroacetic acid salt], the EC50 was less than 100 nM.
Regarding `C[C@@H](C(=O)Nc1ccc(C[C@@H]2CC[C@H]([C@H](O)c3cccnc3)N2)cc1)c1ccccn1` (single isomer, unassigned) [Example 94, trifluoroacetic acid salt], the EC50 is less than 100 nM.
On to `C[C@@H](C(=O)Nc1ccc(C[C@@H]2CC[C@H]([C@H](O)c3cccnc3)N2)cc1)n1ccccc1=O` (single isomer, unassigned) [Example 95], for which the EC50 is less than 10 nM.
`C[C@H](C(=O)Nc1ccc(C[C@@H]2CC[C@H]([C@H](O)c3cccnc3)N2)cc1)n1ccccc1=O` (single isomer, unassigned) [Example 96, trifluoroacetic acid salt]: the EC50 was less than 10 nM.
